Patent US10959992B2, “Methods of treatment of asthma and COPD” (Bridge Pharma, Inc., priority 2019, dated 2021)
Values belong to the compound of their own block, whether it stands above or below them.

How the values were obtained:
PAF-induced eosinophilia = experiment: PAF-induced pulmonary eosinophil accumulation after continuous subcutaneous dosing; format: in vivo, Sprague-Dawley rats; settings: 1 mg/kg/day sc for 6 days, rats; BSA + saline control 100, PAF control 250
Protocol: Male Sprague-Dawley rats, 400-600 g, were used in these studies.
The study described here used subcutaneous administration of norketotifen and ketotifen by Alzet® osmotic pumps. The rats were administered either RS-norketotifen hydrogen fumarate (1.0 mg/kg/day) or RS-ketotifen hydrogen fumarate (1.0 mg/kg/day) or saline. After five days of sc infusions of test articles and the vehicle, the animals were injected, i.p. with 10 μg PAF (platelet aggregating factor) in 0.25% bovine serum albumin (BSA) in saline. The subcutaneous infusions of test articles or vehicle were continued for another twenty-four hours and the animals were then sacrificed by intraperitoneal injections of a barbiturate. The tracheae of the euthanized animals were exposed and cannulated and aliquots (6×10 ml) of a Tyrode solution were successively introduced into the lungs and aspirated by gentle compression of the thorax. The total recovery of lung fluid was usually above 80%. The cell suspensions were concentrated by low speed centrifugation (200 g for 10 min) and the resulting cell pellet was resuspended in 1 ml of a Tyrode solution. Total cell counts were performed after dilution in Turks fluid, fixation in methanol and Leishman staining.
The study shown here used norketotifen, ketotifen, and saline (control) after continuous dosing with Alzet® Osmotic pumps.

IL-1β = experiment: PHA-induced release of IL-1β from human buffy coats; format: cell-based; settings: 10 uM; PHA 5 μg/ml, 16 hours; inhibition
Protocol: (§1) The study was conducted in two phases. The first phase included optimization of the test methodology and included also dose-range finding studies, using buffy coats from 3 human donors, stimulated with phytohemagglutinin (PHA). The concentrations of the test article and the duration of exposure were optimized to obtain acceptable dose-response ratios. Following optimization of the test conditions, a final protocol was issued. In the Main Study, buffy coats from 5 healthy human male donors were stimulated with PHA, 5 μg/ml.
(§2) The inhibitory effects of three concentrations of NK and one concentration of ketotifen were evaluated in the Main Study. The buffy coats were resuspended in assay media and were pre-incubated for 30 min with either vehicle/saline, ketotifen (10 μM) or norketotifen (1.0; 10 or 100 μM). Following these preincubations, the white blood cell suspensions were stimulated for 16 hours with PHA, 5 μg/ml. The cell system supernatants were then harvested and stored frozen.

IL-8 = experiment: PHA-induced release of IL-8 from human buffy coats; format: cell-based; settings: 10 uM; PHA 5 μg/ml, 16 hours; inhibition
Protocol: as §1, §2

IL-13 = experiment: PHA-induced release of IL-13 from human buffy coats; format: cell-based; settings: 10 uM; PHA 5 μg/ml, 16 hours; inhibition
Protocol: as §1, §2

IL-6 = experiment: PHA-induced release of IL-6 from human buffy coats; format: cell-based; settings: 10 uM; PHA 5 μg/ml, 16 hours; inhibition
Protocol: as §1, §2

IFN-γ = experiment: PHA-induced release of IFN-γ from human buffy coats; format: cell-based; settings: 10 uM; PHA 5 μg/ml, 16 hours; inhibition
Protocol: as §1, §2

IL-4 = experiment: PHA-induced release of IL-4 from human buffy coats; format: cell-based; settings: 10 uM; PHA 5 μg/ml, 16 hours; inhibition
Protocol: as §1, §2

IL-2 = experiment: PHA-induced release of IL-2 from human buffy coats; format: cell-based; settings: 10 uM; PHA 5 μg/ml, 16 hours; inhibition
Protocol: as §1, §2

IL-10 = experiment: PHA-induced release of IL-10 from human buffy coats; format: cell-based; settings: 10 uM; PHA 5 μg/ml, 16 hours; inhibition
Protocol: as §1, §2

TNF-α = experiment: PHA-induced release of TNF-α from human buffy coats; format: cell-based; settings: 10 uM; PHA 5 μg/ml, 16 hours; inhibition
Protocol: as §1, §2

[1] = system: croton oil-induced ear swelling; experiment: Croton oil-induced ear swelling; format: in vivo, CD-1 female mice; design: Average ear thickness: unit not given beside the values; settings: for Average ear thickness: single oral dose 10 mg/kg 60 min before
Protocol: The effects of NK, PRED and the vehicle (5% PEG in water) were tested orally in CD-1 female mice. Under the test protocol, 20 μl of 1.0% croton oil in acetone was applied topically to both ears of three groups of mice, each group consisting of 6 mice. No attempt was made to remove the croton oil solution since the solvent evaporated within 30 seconds. The oral doses of NK and PRED were 10 mg/kg (10 ml/kg) bodyweight for both compounds and were administered 60 min before the croton oil applications. Vehicle-treated mice were dosed 10 ml/kg of water, containing 5% polyethylene glycol (PEG), which was also the solvent for the test articles. Ear thickness was measured with an electronic caliper and mean ear thickness (N=12; right+left ears) were calculated and compared with the thickness of ears from vehicle-treated mice (Student's t-test).

[2] = system: oxazolone-induced increase in ear thickness; experiment: Oxazolone test of immunosuppression (ear thickness); format: in vivo, BALB/c mice; settings: for Increase in ear thickness (mm): control 0.153; for Increase in ear thickness (%): control 100.0
Protocol: Male BALB/c mice, 20-24 grams, 7-12 weeks, were used. The sensitization dosing (Day 1) consisted of painting the ventral portion of the pre-shaved abdominal skin with 0.1 ml of 3.0% oxazolone in 70% ethanol. Test articles were administered orally in 1.0% methyl-cellulose, starting on Day 1 and continuing for 10 consecutive days. The challenge dosing consisted of the application of 0.05 ml of 3.0% oxazolone in 70% ethanol on both sides of the outer pinna of the right ear. The thickness of both ears of all animals was measured with a calliper before the challenge dose and 24 hours after the administration of the challenge dose (Day 10). The ear thickness of untreated mice was 0.19 to 0.20 mm.
Justification of the model: The classic oxazolone test method was used with minor modifications. This method has been used for over 40 years in numerous drug development projects.

sedation = settings: art-accepted mouse model of sedation; U.S. Pat. Nos. 7,226,934 and 7,557,128; cited from earlier work

SMILES: CN1CCC(=C2c3ccccc3CC(=O)c3sccc32)CC1.O=C(O)/C=C/C(=O)O [Ketotifen HF, RS-ketotifen hydrogen fumarate, reference compound]
PAF-induced esosinophilia (% ± SEM) (PAF-induced eosinophilia): 110 ± 3%

SMILES: CN1CCC(=C2c3ccccc3CC(=O)c3sccc32)CC1 [Ketotifen, ketotifen, reference compound]
Effect on PHA-induced release of IL-1β (%) (IL-1β): 0.00% | Effect on PHA-induced release of IL-8 (%) (IL-8): 30.73% | Effect on PHA-induced release of IL-13 (%) (IL-13): 0.00% | Effect on PHA-induced release of IL-6 (%) (IL-6): 0.00% | Effect on PHA-induced release of IFN-γ (%) (IFN-γ): 0.00% | Effect on PHA-induced release of IL-4 (%) (IL-4): 0.00% | Effect on PHA-induced release of IL-2 (%) (IL-2): 0.00% | Effect on PHA-induced release of IL-10 (%) (IL-10): 0.00% | Effect on PHA-induced release of TNF-α (%) (TNF-α): 39.98%

SMILES: O=C(O)C=CC(=O)O.O=C1Cc2ccccc2C(=C2CCNCC2)c2ccsc21 [Norketotifen HF, RS-norketotifen hydrogen fumarate]
PAF-induced esosinophilia (% ± SEM) (PAF-induced eosinophilia): 74 ± 4%

Immunosuppression (%) ([2]; 0.3 mg/kg/day oral for 10 days): 29.4% | Increase in ear thickness (mm) ([2]; 0.3 mg/kg/day oral for 10 days): 0.108 mm | Increase in ear thickness (%) ([2]; 0.3 mg/kg/day oral for 10 days): 70.6% | Immunosuppression (%) ([2]; 1.0 mg/kg/day oral for 10 days): 45.0% | Increase in ear thickness (mm) ([2]; 1.0 mg/kg/day oral for 10 days): 0.084 mm | Increase in ear thickness (%) ([2]; 1.0 mg/kg/day oral for 10 days): 55.0% | Immunosuppression (%) ([2]; 3.0 mg/kg/day oral for 10 days): 50.3% | Increase in ear thickness (mm) ([2]; 3.0 mg/kg/day oral for 10 days): 0.076 mm | Increase in ear thickness (%) ([2]; 3.0 mg/kg/day oral for 10 days): 49.7%
SMILES: C[C@]12C=CC(=O)C=C1CC[C@@H]1[C@@H]2[C@@H](O)C[C@@]2(C)[C@H]1CC[C@]2(O)C(=O)CO [PRED, prednisolone]
Average ear thickness ([1]; 0 (predose) min after croton oil, vehicle 0.21 ± 0.02): 0.22 ± 0.01 | Average ear thickness ([1]; 90 min after croton oil, vehicle 0.29 ± 0.04): 0.28 ± 0.01 | Average ear thickness ([1]; 120 min after croton oil, vehicle 0.28 ± 0.02): 0.27 ± 0.01 | Anti-inflammatory effect compared with vehicle control group (conclusion in words) ([1]; single oral dose 10 mg/kg, croton oil ear swelling in mice): did not express statistically significant anti-inflammatory effect | Immuno-suppressant activity (conclusion in words) ([2]; daily oral dosing for 10 days to mice, RS-norketotifen 10 or 30 mg/kg, prednisolone at 10 times lower doses): potent and dose-dependent immune suppression

SMILES: O=C(O)/C=C/C(=O)O.O=C1Cc2ccccc2C(=C2CCNCC2)c2ccsc21 [R-isomer, R-norketotifen]
Sedative effects (sedation): sedative effects were attributed to the R-isomer
